IC50 data for two compounds are collected here from ChEMBL document CHEMBL3352085, “In vitro evaluation of potential bitterness-masking terpenoids from the Canada goldenrod (Solidago canadensis)” (J Nat Prod, 2014).

pIC50: −log10 of the molar value.

This assay has as its target T1, Taste receptor type 2 member 31 (Homo sapiens, UniProt P59538).
T1 sequence (P59538 whole entry): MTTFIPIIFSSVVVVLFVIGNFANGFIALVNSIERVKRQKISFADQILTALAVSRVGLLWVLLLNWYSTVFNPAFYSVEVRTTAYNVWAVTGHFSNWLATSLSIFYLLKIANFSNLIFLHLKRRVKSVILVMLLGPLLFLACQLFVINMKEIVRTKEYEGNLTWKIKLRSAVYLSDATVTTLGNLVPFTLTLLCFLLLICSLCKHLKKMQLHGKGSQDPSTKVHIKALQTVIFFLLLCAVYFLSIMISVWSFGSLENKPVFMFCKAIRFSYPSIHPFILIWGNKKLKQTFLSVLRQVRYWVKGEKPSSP
Put plainly: Antagonist activity at human TAS2R31 expressed in HEK-293T cells stably expressing Galpha16gust44 assessed as inhibition receptor response to saccharin by fluorescence assay. Format: cell-based.

A word on the pIC50: it is the negative decadic logarithm of the IC50, by convention in mol/L. Consider `C=C1CC[C@H]2C(C)(C)[C@@H](OC(C)=O)CC[C@]2(C)[C@H]1CC/C(C)=C/C(=O)O`, for which the pIC50 was 5.10. Next, `CC(=O)O[C@H]1CC[C@]2(C)[C@@H](CC/C(C)=C/C(=O)O)C(C)=CC[C@H]2C1(C)C`: below 4.60.
